Test results published in patent publication US20070244076A1, “Site and Rate Selective Prodrug Formulations of D609 with Antioxidant and Anticancer Activity” (priority 2003, published 2007).

Assays:
[1] = rat, plasma
Experimental: At various times of the incubation, the hydrolysis of prodrug 2 was monitored by HPLC analysis, and the release of D609 was determined by measuring the colorimetric reaction of D609 with DTNB (3 mM). The data are presented as mean±SE of three independent assays.
After incubation at 37° C., aliquots (100 μl) of the plasma were removed at various times and immediately mixed with an equal volume of DTNB in acetonitrile (3 mM DTNB). Acetonitrile was used to quickly inactivate plasma esterases and to precipitate plasma proteins. After removal of the precipitated plasma proteins by centrifugation, the concentrations of the D609 prodrug and D609 in the clear plasma supernatants were determined by HPLC and DTNB assays, respectively, as described above.

[2] = Cyclic voltammetry, reducing power (E1/2) at physiological pH; format: physicochemical; conditions: 2 mM in PBS (pH 7.4)
Experimental: D609 was dissolved in PBS (pH 7.4) at 2 mM concentration, and E1/2 was measured using a cyclic voltammetry apparatus (Model CV-2, from BAS, West Lafayette, 1N).

BALB/c mice = assay: Protection of mice from IR-induced lethality; format: in vivo; conditions: 50 mg/kg iv 10 min prior to 6.5 or 8.5 Gy total body IR; 30-day observation
Experimental: BALB/c mice were exposed to 6.5 or 8.5 Gy total body IR 10 minutes after they received a single dose (50 mg/kg) of iv injection of D609 or vehicle (saline) through the tail vein. The death of these mice was recorded during a 30-day observation period after IR.
Moreover, when D609 (50 mg/kg, iv) was administered to mice 10 min prior to total body

lymphocytes = assay: IR-induced oxidative events in lymphocytes; format: cell-based; conditions: pre-incubation of lymphocytes
[3] = tested on: leukemia cells (U937, Jurkat, SupT13 and A20), solid tumor cells (HT1080); assay: MTT cell viability, leukemia and solid tumor cell panel; format: cell-based; conditions: 48 hours
Excerpt: The results, shown in FIG. 7A and FIG. 7B, are expressed as a percent of vehicle control and presented as means±SEM (n=3).

[4] = tested on: sphingomyelin synthase (SMS); assay: SMS activity in U937 cell lysates with inhibitor added (cell lysate-based in vitro assay); format: biochemical, Human; conditions: 30 min at 30° C.
Experimental: In this study, p-nitrophenyl-phosphorylcholine (pNPP, 40 mM) was incubated with 2 U/ml phospholipase C (Type XI from B. cereus) in the presence or absence of various concentrations of inhibitors for 2 hrs at 37° C. The amount of the cleaved substrate pNPP was quantified by determination of the optical density at 410 nm using an ELISA reader. The results are expressed as percent of vehicle control and presented as means±SEM (n=3) (FIG. 9A). NBD-C6-ceramide and PC were incubated with U937 cell lysates containing 50 μg protein in the presence or absence of various concentrations of inhibitors for 30 min at 30° C. The formation of NBD-C6-sphingomyelin as analyzed by TLC and quantified by determination of the fluorescent intensity of NBD-C6-sphingomyelin using a phosphorimager. The results are expressed as percent of vehicle control (FIG. 9B). U937 cells were incubated with different concentrations of inhibitors for 48 hours.

[5] = tested on: Mouse splenic lymphocytes; assay: Mitogen-stimulated lymphocyte proliferation, 3H-thymidine incorporation; format: cell-based; conditions: 188 μM=50 μg/ml
Experimental: Studies were conducted to determine whether D609 enhances mouse splenic lymphocyte mitogenic responses and IFNγ production. Mouse splenic lymphocytes at 2.5×10^6/ml were stimulated with LPS or ConA in the presence or absence of D609. The cell proliferation was measure by 3H-thymidine incorporation after the cells were cultured with LPS (FIG. 8A) or with ConA (FIG. 8B). […] In addition, the supernatants of ConA-stimulated lymphocyte cultures were harvested at various times and measured for IFNγ production by ELISA (FIG. 8C).

| Structure (SMILES) | T1/2 [1] | E1/2 [2] | protection from IR-induced lethality (BALB/c mice) | IR-induced events (ROS production, decrease in GSH, oxidative damage to proteins and lipids, NF-κB activation) (lymphocytes) | cell viability [3] | inhibition of SMS activity [4] | mitogenic responses to LPS or ConA [5] |
| --- | --- | --- | --- | --- | --- | --- | --- |
| CCCC(=O)OCSC(=S)OC1CC2CC1C1CCCC21 (stereo not shown) [Prodrug 2, S-methyleneoxybutyryl D609] | 7.559 s |  |  |  |  |  |  |
| S=C([S-])OC1CC2CC1C1CCCC21.[K+] (stereo not shown) [Prodrug D609, Tricyclodecan-9-yl-xanthogenate] |  | 350 mV | protected the mice from IR-induced lethality | significant diminution | dose-dependent reduction in cell viability | inhibited the SMS activity in a dose-dependent manner | enhanced their mitogenic responses |
